From patent US11981660B2, “Neurite outgrowth promoters and uses thereof” (UNIVERSITY OF MIAMI, priority 2018, dated 2024)

System: hippocampal neurons
Experiment: Neurite outgrowth assay in cultured E18 rat hippocampal neurons (48 h, βIII-tubulin staining, Cellomics ArrayScan)
Type: cell-based
Conditions: Hippocampal neuron; for activity at 0.015625 µg/mL: 15.625 ng/mL compound; for activity at 0.015625 µg/mL / activity at 0.03125 µg/mL / activity at 0.0625 µg/mL / activity at 0.125 µg/mL / activity at 0.25 µg/mL / activity at 0.5 µg/mL: 48 hours, read-out: neurite growth length (% NTL); for activity at 0.03125 µg/mL: 31.25 ng/mL compound; for activity at 0.0625 µg/mL: 62.5 ng/mL compound; for activity at 0.125 µg/mL: 125 ng/mL compound; for activity at 0.25 µg/mL: 250 ng/mL compound; for activity at 0.5 µg/mL: 500 ng/mL compound; for EC200 / EC300: 48 h, estimated using linear interpolation; for EC200: 200% effective dose, read-out: ED200%; for EC300: 300% effective dose, read-out: ED300%
Procedure: Pre-coating culture plates: On the day before the experiment, 96-well plates were pre-coated by plating 50 μL of poly-D-lysine solution (PDL, 0.5 mg/mL) in each well. The next morning, the plates were washed four or five times with HBSS or PBS (150 μL/rinse), then left in buffer until cell plating
Preparing the cells: A timed pregnant rat carrying E18 embryos was euthanized using an IACUC approved method. In a laminar flow hood, the embryos were removed and placed in a petri dish containing Hank's Balanced Salt Solution (HBSS) with 20 mM HEPES, pH 7.3. Pup brains were dissected (see Meberg et al., Methods cell Biol 71:111-127 (2003)) and hippocampi were collected in 15 mL a conical tube containing Hibernate E with SM1 (2% v/v).
Dissociation media was prepared by combining 4.5 mL of Hibernate E (without SM1) with 0.5 mL of trypsin and 100 μl of DNAse solution. The medium over the hippocampi was carefully removed and replaced with dissociation solution, then incubated at 37° C. for 15-20 minutes, occasionally swirling the tube.
Using flame polished cotton plugged Pasteur pipettes, the dissociation media was removed, and then 5 mL of Hibernate E containing SM1 were added. The tube was swirled to thoroughly wash the tissue. The tissue was allowed to settle to the bottom of the tube, and the rinse solution was carefully removed. This step was repeated 5 times to dilute out trypsin and DNAse and remove any debris from lysed cells.
The final rinse media was removed from the tube and 1 pipette-full (1-2 mL) of Hibernate E with SM1 was added. Using the flame-polished Pasteur pipette (pre-wetted with rinse media), the tube was triturated until all cells had dissociated and no visible chunks of tissue remained. Fewer than ten triturations were typically performed. The volume was adjusted to 8-12 mL using Hibernate E containing SM1, the well was mixed and cell concentration was determined.
Plating: The cells were diluted in culture media (NbActiv4 Cell-culture media) to a final concentration of 10,000 cells/mL. The HBSS was aspirated from PDL coated plates, and 150 μL of cell solution was loaded in the middle 48 wells at 1500 cells per well. Water was loaded in the outer wells to decrease evaporation from edge wells. Cells were allowed to adhere for 2 hours in tissue culture incubator prior to treatment.
Treatment: Compounds were diluted to various concentrations to provide 6 dose response concentrations of 500 ng/mL, 250 ng/mL, 125 ng/mL, 62.5 ng/mL, 31.25 ng/mL, and 15.625 ng/mL. The plates were cultured for 48 hours, exposed to the compound at the various dose response concentrations.
Fixing the cultures: The culture medium was removed from the plates and immediately replaced with 100-200 μL of warm (37° C.) 4% paraformaldehyde (“PFA”) solution in phosphate-buffered saline (“PBS”). The cells were fixed for 15-20 minutes at room temperature, and then rinsed with PBS (200 μl/well×3).
Staining and imaging: The PBS was removed and replaced with 100 μL of blocking/permeabilization buffer (PBS, 0.2% fish gelatin, 0.03% Triton X-100, 0.02% NaN3), then incubated overnight at 4° C. To this was added 100 μL of primary antibody solution (mouse anti-Beta III tubulin in blocking buffer) and incubate overnight at 4° C. The wells were rinsed with PBS (200 μl×3), which was then removed and replaced with 100 μL of secondary antibody solution (Goat anti-mouse Alexa 488, 10 μg/ml Hoechst 33342, 0.2% fish gelatin, 0.02% azide, in PBS). The plate was shaken gently on a rotating shaker for 2 hours, then rinsed with PBS (200 μl×5).
The plate was imaged using a Cellomics ArrayScan VTI in 2 different channels for nuclear staining (Hoechst) and cell body/neurite staining (βIII-tubulin). Typically, nine fields per well were imaged with a 5× objective and automatically traced by the Neuronal Profiling Bioapplication. To get reproducible results, at least 200-300 valid neurons were measured per condition. […]

Row | SMILES | activity at 0.015625 µg/mL [%] | activity at 0.03125 µg/mL [%] | activity at 0.0625 µg/mL [%] | activity at 0.125 µg/mL [%] | activity at 0.25 µg/mL [%] | activity at 0.5 µg/mL [%] | EC200 [µM] | EC300 [µM]
1 | CCC(C)C1=N[C@@H](CCCCN2C[C@@H](C)N(CCCC(C)C)C2=S)CN1 (mixture of isomers) [Compound A1, (4R)-1-(4-((4S)-2-(sec-butyl)-4,5-dihydro-1H-imidazol-4-yl)butyl)-4-methyl-3-(4-methylpentyl)imidazolidine-2-thione] | 92 | 116 | 155 | 169 | 209 | 323 |  | 
2 | C[C@@H]1CN(CCCC[C@H]2CNC(CCCc3ccccc3)=N2)C(=S)N1CCC1CCCCC1 [Compound A6, (R)-3-(2-cyclohexylethyl)-4-methyl-1-(4-((S)-2-(3-phenylpropyl)-4,5-dihydro-1H-imidazol-4-yl)butyl)imidazolidine-2-thione] | 101 | 122 | 122 | 210 | 247 | 243 |  | 
3 | CCC(C)C1=N[C@@H](CCCCN2C[C@@H](CC(C)C)N(CC3CCC(C)CC3)C2=S)CN1 (stereo partly drawn) [Compound A16, (4R)-1-(4-((4S)-2-(sec-butyl)-4,5-dihydro-1H-imidazol-4-yl)butyl)-4-isobutyl-3-((4-methylcyclohexyl)methyl)imidazolidine-2-thione] | 131 | 216 | 254 | 268 | 236 | 264 | 0.01 | 0.053
4 | C[C@@H]1CN(CCCC[C@H]2CNC(C3CCCC3)=N2)C(=S)N1CCC1CCCCC1 [Compound A5, (R)-3-(2-cyclohexylethyl)-1-(4-((S)-2-cyclopentyl-4,5-dihydro-1H-imidazol-4-yl)butyl)-4-methylimidazolidine-2-thione] | 105 | 158 | 188 | 251 | 246 | 304 |  | 
5 | CCC(C)C1=N[C@@H](CCCCN2C[C@@H](c3ccccc3)N(CCC3CCCCC3)C2=S)CN1 (stereo partly drawn) [Compound A22, (4R)-1-(4-((4S)-2-(sec-butyl)-4,5-dihydro-1H-imidazol-4-yl)butyl)-3-(2-cyclohexylethyl)-4-phenylimidazolidine-2-thione] | 139 | 201 | 257 | 246 | 222 | 228 |  | 
6 | CCC(C)C1=N[C@@H](CCCCN2C[C@@H](CC(C)C)N(CCCC(C)C)C2=S)CN1 (mixture of isomers) [Compound A10, (4R)-1-(4-((4S)-2-(sec-butyl)-4,5-dihydro-1H-imidazol-4-yl)butyl)-4-isobutyl-3-(4-methylpentyl)imidazolidine-2-thione] | 123 | 180 | 223 | 254 | 259 | 240 |  | 
7 | CC(C)C[C@@H]1CN(CCCC[C@H]2CNC(C3CCCC3)=N2)C(=S)N1CCC1CCCCC1 [Compound A14, (R)-3-(2-cyclohexylethyl)-1-(4-((S)-2-cyclopentyl-4,5-dihydro-1H-imidazol-4-yl)butyl)-4-isobutylimidazolidine-2-thione] | 195 | 256 | 271 | 283 | 277 | 249 | 0.004 | > 0.543
8 | CC(C)CCCN1C(=S)N(CCCC[C@H]2CNC(CCCc3ccccc3)=N2)C[C@H]1CC(C)C [Compound A12, (R)-4-isobutyl-3-(4-methylpentyl)-1-(4-((S)-2-(3-phenylpropyl)-4,5-dihydro-1H-imidazol-4-yl)butyl)imidazolidine-2-thione] | 127 | 145 | 194 | 237 | 266 | 240 |  | 
9 | CCC(C)C1=N[C@@H](CCCCN2C[C@@H](c3ccccc3)N(CC3CCC(C)CC3)C2=S)CN1 (stereo partly drawn) [Compound A25, (4R)-1-(4-((4S)-2-(sec-butyl)-4,5-dihydro-1H-imidazol-4-yl)butyl)-3-((4-methylcyclohexyl)methyl)-4-phenylimidazolidine-2-thione] | 190 | 256 | 297 | 302 | 256 | 280 | 0.005 | 0.054
10 | S=C1N(CCCC[C@H]2CNC(C3CCCC3)=N2)C[C@@H](c2ccccc2)N1CCC1CCCCC1 [Compound A23, (R)-3-(2-cyclohexylethyl)-1-(4-((S)-2-cyclopentyl-4,5-dihydro-1H-imidazol-4-yl)butyl)-4-phenylimidazolidine-2-thione] | 182 | 252 | 260 | 262 | 232 | 186 | 0.007 | 0.091
11 | CCC(C)C1=N[C@@H](CCCCN2C[C@@H](C)N(CCC3CCCCC3)C2=S)CN1 (stereo partly drawn) [Compound A4, (4R)-1-(4-((4S)-2-(sec-butyl)-4,5-dihydro-1H-imidazol-4-yl)butyl)-3-(2-cyclohexylethyl)-4-methylimidazolidine-2-thione] | 102 | 121 | 143 | 196 | 246 | 358 |  | 
12 | CC1CCC(CN2C(=S)N(CCCC[C@H]3CNC(CCCc4ccccc4)=N3)C[C@H]2c2ccccc2)CC1 (stereo partly drawn) [Compound A27, (R)-3-((4-methylcyclohexyl)methyl)-4-phenyl-1-(4-((S)-2-(3-phenylpropyl)-4,5-dihydro-1H-imidazol-4-yl)butyl)imidazolidine-2-thione] | 185 | 174 | 238 | 269 | 245 | 221 | 0.017 | > 0.471
13 | CC(C)C[C@@H]1CN(CCCC[C@H]2CNC(C3CCCC3)=N2)C(=S)N1CC1CCC(C)CC1 (stereo partly drawn) [Compound A17, (R)-1-(4-((S)-2-cyclopentyl-4,5-dihydro-1H-imidazol-4-yl)butyl)-4-isobutyl-3-((4-methylcyclohexyl)methyl)imidazolidine-2-thione] | 170 | 255 | 254 | 312 | 238 | 263 | 0.004 | 0.025
